According to US20230263822A1, “MODULATION OF FACTOR 11 EXPRESSION” (Ionis Pharmaceuticals, Inc., priority 2008, published 2023):
Strand notation (5' to 3'): a small letter for the sugar, then the base; units joined by * are phosphorothioate-linked, units joined directly phosphodiester-linked; [ ] holds rarer units or linkages, { } end groups; capitals alone tell only the bases. e = 2'-O-(2-methoxyethyl) (MOE); [5mC] = 5-methylcytosine; d = 2'-deoxy (DNA)

Tests used:
[1] = Kidney function, BUN, urine protein to creatinine ratio in cynomolgus monkeys (Example 46); format: in vivo
Procedure: (§1) Groups, each consisting of two male and two female monkeys, were injected subcutaneously with 25 mg/kg of ISIS 416850, ISIS 449709, ISIS 445522, ISIS 449710, ISIS 449707, ISIS 449711, ISIS 449708, 416858, and ISIS 445531. Antisense oligonucleotide was administered to the monkeys at 25 mg/kg three times per week for week 1 and 25 mg/kg twice per week for weeks 2 to 8. A control group, consisting of two male and two female monkeys was injected subcutaneously with PBS according to the same dosing regimen. Body weights were taken 14 days and 7 days before the start of treatment and were then measured weekly throughout the treatment period. Blood samples were collected 14 days and 5 days before the start of treatment and subsequently several times during the dosing regimen for PT and aPTT measurements, and measurement of various hematologic factors. On day 55, the monkeys were euthanized by exsanguination while under deep anesthesia, and organs harvested for further analysis.
To evaluate the impact of ISIS oligonucleotides on kidney function, urine samples were collected on different days. […] The ratio of urine protein to creatinine in urine samples after antisense oligonucleotide treatment was also calculated for day 49 and results are presented in Table 156. As observed in Tables 155 and 156, there were no significant increases in any of the kidney metabolic markers after antisense oligonucleotide treatment.

[2] = tested on: Factor 11 mRNA; test: Factor 11 mRNA in cynomolgus monkey liver, day 55 (Example 46); format: in vivo, cynomolgus monkeys; conditions: cynomolgus monkeys, 25 mg/kg
Procedure: as §1
On day 55, RNA was extracted from liver tissue for real-time PCR analysis of Factor 11 using primer probe set LTS00301. Results are presented as percent inhibition of Factor 11, relative to PBS control.

[3] = Liver function, ALT, AST, bilirubin in cynomolgus monkeys (Example 46); format: in vivo; conditions: plasma
Procedure: as §1
Plasma concentrations of alanine transaminase (ALT) and aspartate transaminase (AST) were measured and the results are presented in Tables 152 and 153 expressed in IU/L. Plasma levels of bilirubin were also measured and results are presented in Table 154 expressed in mg/dL. As observed in Tables 152-154, there were no significant increases in any of the liver metabolic markers after antisense oligonucleotide treatment.

[4] = tested on: IL-1β, IL-6, IFN-γ, TNF-α, IL-8, MIP-1α, MCP-1, MIP-1β, RANTES; test: Cytokine and chemokine assays in cynomolgus monkeys (Example 46); format: in vivo
Procedure: as §1
Blood samples obtained from all monkey groups were sent to Pierce Biotechnology (Woburn, Mass.) for measurements of chemokine and cytokine levels. Levels of IL-1β, IL-6, IFN-γ, and TNF-α were measured using the respective primate antibodies and levels of IL-8, MIP-1α, MCP-1, MIP-1β and RANTES were measured using the respective cross-reacting human antibodies. Measurements were taken 14 days before the start of treatment and on day 55, when the monkeys were euthanized.

[5] = Hematology assays in cynomolgus monkeys (Example 46); format: in vivo
Procedure: as §1

[6] = day-14 (before start of treatment)

Q: Which BUN levels ([1]; Day 31) does the source give for “ISIS 449710: 3-8-3, 4-8-4, 2-10-2, 3-10-3 or 4-10-4 MOE microwalk gapmer (Table 46) (antisense e[5mC]*eA*e[5mC]*dA*dG*dT*dT*dT*d[5mC]*dT*dG*dG*d[5mC]*eA*eG*eG)” here?
A: 19 mg/dL

Q: And the BUN levels ([1]; Day 55)?
A: 23 mg/dL

Q: What about the BUN levels ([1]; Day −5 (before start of treatment)) of the same substance?
A: 19 mg/dL

Q: What about the BUN levels ([1]; Day −14 (before start of treatment)) of the same substance?
A: 19 mg/dL

Q: And the Urine protein/creatinine ratio ([1]; urine, day 49)?
A: 0.00

Q: What about the “Factor 11 mRNA in liver vs PBS control” value [2] of the same substance?
A: significant reduction of Factor 11 mRNA

Q: And the ALT ([3]; Day 31)?
A: 37 IU/L

Q: And the AST ([3]; Day 31)?
A: 37 IU/L

Q: And the Bilirubin ([3]; Day 31)?
A: 0.15 mg/dL

Q: What about the ALT ([3]; Day 55) of the same substance?
A: 45 IU/L

Q: What about the AST ([3]; Day 55) of the same substance?
A: 64 IU/L

Q: And the Bilirubin ([3]; Day 55)?
A: 0.22 mg/dL

Q: What about the ALT ([3]; Day −5) of the same substance?
A: 42 IU/L

Q: What about the AST ([3]; Day −5) of the same substance?
A: 38 IU/L

Q: And the Bilirubin ([3]; Day −5)?
A: 0.19 mg/dL

Q: What about the ALT ([3]; Day −14) of the same substance?
A: 37 IU/L

Q: What about the AST ([3]; Day −14) of the same substance?
A: 52 IU/L

Q: What about the Bilirubin ([3]; Day −14) of the same substance?
A: 0.24 mg/dL

Q: And the IFN-γ level ([4]; day 55)?
A: 176 pg/mL

Q: What about the IL-1ß level ([4]; day 55) of the same substance?
A: 286 pg/mL

Q: And the IL-6 level ([4]; day 55)?
A: 2 pg/mL

Q: And the IL-8 level ([4]; day 55)?
A: 348 pg/mL

Q: And the MCP-1 level ([4]; day 55)?
A: 474 pg/mL

Q: And the MIP-1ß level ([4]; day 55)?
A: 53 pg/mL

Q: And the MIP-1α level ([4]; day 55)?
A: 27 pg/mL

Q: What about the RANTES level ([4]; day 55) of the same substance?
A: 22656 pg/mL

Q: What about the TNF-α level ([4]; day 55) of the same substance?
A: 26 pg/mL

Q: And the IFN-γ level [4, 6]?
A: 1115 pg/mL

Q: And the IL-1ß level [4, 6]?
A: 271 pg/mL

Q: What about the IL-6 level [4, 6] of the same substance?
A: 7 pg/mL

Q: What about the IL-8 level [4, 6] of the same substance?
A: 29 pg/mL

Q: And the MCP-1 level [4, 6]?
A: 409 pg/mL

Q: What about the MIP-1ß level [4, 6] of the same substance?
A: 18 pg/mL

Q: And the MIP-1α level [4, 6]?
A: 20 pg/mL

Q: What about the RANTES level [4, 6] of the same substance?
A: 1215 pg/mL

Q: And the TNF-α level [4, 6]?
A: 72 pg/mL

Q: What about the HCT ([5]; Day 17) of the same substance?
A: 43%

Q: And the MCH ([5]; Day 17)?
A: 23.1 pg

Q: And the MCHC ([5]; Day 17)?
A: 30.7 g/dL

Q: What about the MCV ([5]; Day 17) of the same substance?
A: 75 fL

Q: What about the RBC count ([5]; Day 17) of the same substance?
A: 5.8e+06 µL⁻¹

Q: And the WBC count ([5]; Day 17)?
A: 12000 µL⁻¹

Q: And the hemoglobin content ([5]; Day 17)?
A: 13.4 g/dL

Q: What about the monocytes ([5]; Day 17) of the same substance?
A: 2.5%

Q: What about the neutrophils ([5]; Day 17) of the same substance?
A: 80%

Q: What about the platelet count ([5]; Day 17) of the same substance?
A: 382 ×100/μL

Q: What about the HCT ([5]; Day 31) of the same substance?
A: 44%

Q: And the MCH ([5]; Day 31)?
A: 22.6 pg

Q: And the MCHC ([5]; Day 31)?
A: 30.1 g/dL

Q: And the MCV ([5]; Day 31)?
A: 75 fL

Q: And the RBC count ([5]; Day 31)?
A: 5.8e+06 µL⁻¹

Q: What about the WBC count ([5]; Day 31) of the same substance?
A: 12000 µL⁻¹

Q: And the hemoglobin content ([5]; Day 31)?
A: 13.1 g/dL

Q: What about the monocytes ([5]; Day 31) of the same substance?
A: 2.4%

Q: And the neutrophils ([5]; Day 31)?
A: 94%

Q: And the platelet count ([5]; Day 31)?
A: 422 ×100/μL

Q: And the HCT ([5]; Day 45)?
A: 43%

Q: What about the MCH ([5]; Day 45) of the same substance?
A: 21.8 pg

Q: What about the MCHC ([5]; Day 45) of the same substance?
A: 30.4 g/dL

Q: And the MCV ([5]; Day 45)?
A: 75 fL

Q: And the RBC count ([5]; Day 45)?
A: 5.7e+06 µL⁻¹

Q: And the WBC count ([5]; Day 45)?
A: 11000 µL⁻¹

Q: And the hemoglobin content ([5]; Day 45)?
A: 13.0 g/dL

Q: And the monocytes ([5]; Day 45)?
A: 3.4%

Q: What about the neutrophils ([5]; Day 45) of the same substance?
A: 97%

Q: And the platelet count ([5]; Day 45)?
A: 313 ×100/μL

Q: And the HCT ([5]; Day 55)?
A: 41%

Q: What about the MCH ([5]; Day 55) of the same substance?
A: 22.7 pg

Q: And the MCHC ([5]; Day 55)?
A: 31.1 g/dL

Q: And the MCV ([5]; Day 55)?
A: 73 fL

Q: And the RBC count ([5]; Day 55)?
A: 5.6e+06 µL⁻¹

Q: What about the WBC count ([5]; Day 55) of the same substance?
A: 15000 µL⁻¹

Q: What about the hemoglobin content ([5]; Day 55) of the same substance?
A: 12.7 g/dL

Q: What about the monocytes ([5]; Day 55) of the same substance?
A: 1.6%

Q: And the neutrophils ([5]; Day 55)?
A: 132%

Q: What about the platelet count ([5]; Day 55) of the same substance?
A: 360 ×100/μL

Q: What about the HCT ([5]; Day-5) of the same substance?
A: 44%

Q: And the MCH ([5]; Day-5)?
A: 22.8 pg

Q: And the MCHC ([5]; Day-5)?
A: 29.7 g/dL

Q: And the MCV ([5]; Day-5)?
A: 77 fL

Q: What about the RBC count ([5]; Day-5) of the same substance?
A: 5.8e+06 µL⁻¹

Q: What about the WBC count ([5]; Day-5) of the same substance?
A: 11000 µL⁻¹

Q: And the hemoglobin content ([5]; Day-5)?
A: 13.2 g/dL

Q: What about the monocytes ([5]; Day-5) of the same substance?
A: 2.0%

Q: What about the neutrophils ([5]; Day-5) of the same substance?
A: 86%

Q: What about the platelet count ([5]; Day-5) of the same substance?
A: 463 ×100/μL

Q: And the HCT ([5]; Day-14)?
A: 41%

Q: And the MCH ([5]; Day-14)?
A: 23.0 pg

Q: And the MCHC ([5]; Day-14)?
A: 31.2 g/dL

Q: What about the MCV ([5]; Day-14) of the same substance?
A: 75 fL

Q: And the RBC count ([5]; Day-14)?
A: 5.6e+06 µL⁻¹

Q: What about the WBC count ([5]; Day-14) of the same substance?
A: 11000 µL⁻¹

Q: And the hemoglobin content ([5]; Day-14)?
A: 13.0 g/dL

Q: And the monocytes ([5]; Day-14)?
A: 1.3%

Q: And the neutrophils ([5]; Day-14)?
A: 93%

Q: And the platelet count ([5]; Day-14)?
A: 411 ×100/μL
